Data published in PMC8429170, “Ligand-binding and -scavenging of the chemerin receptor GPR1” (Cellular and Molecular Life Sciences: CMLS, 2021).
Ends that are not written are not given here. Peptide text beside a SMILES is read from it.

T1: GPR1-eYFP (human) (UniProt P46091)
T1 sequence: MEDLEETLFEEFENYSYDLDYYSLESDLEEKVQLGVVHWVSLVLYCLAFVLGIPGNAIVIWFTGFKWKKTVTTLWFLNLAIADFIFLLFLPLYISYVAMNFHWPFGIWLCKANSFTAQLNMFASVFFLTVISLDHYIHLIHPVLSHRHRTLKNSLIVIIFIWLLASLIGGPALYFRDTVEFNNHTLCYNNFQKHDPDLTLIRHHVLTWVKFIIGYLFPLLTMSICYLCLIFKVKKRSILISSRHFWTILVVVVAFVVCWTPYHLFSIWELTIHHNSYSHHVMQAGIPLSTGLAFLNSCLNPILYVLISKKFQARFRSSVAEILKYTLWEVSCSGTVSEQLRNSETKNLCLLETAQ


How the values were obtained:
[1] = target: T2, GPR1 (Homo sapiens, UniProt P46091); test: cell-based; details: for Emax: COS-7
T2 construct: expressed in transfected cells; host or cells: COS-7, transient
Description: Arrestin recruitment was characterized by measuring the bioluminescence resonance energy transfer (BRET) ratio between luciferase-tagged arrestin3 and either GPR1-eYFP or CMKLR1-eYFP as described previously. In brief, COS-7 cells in 75 cm^2 cell culture flasks were transiently transfected overnight with 7800 ng GPR1-eYFP or CMKLR1-eYFP in pVitro2 and 200 ng Rluc8-Arr3 in pcDNA3 using MetafectenePro according to the manufacturer’s protocol. […] For kinetic measurements, cells were stimulated with agonist in buffer or buffer alone, and fluorescence was measured for 20 min using a Tecan Infinite M 200 Reader (Tecan, Männerdorf, Switzerland) using the filter sets Green1 (YFP emission, luminescence 520–570 nm) and Blue1 (luciferase luminescence 370–480 nm). For concentration–response curves, cells were stimulated with agonist or blank, and luminescence was measured after 10 min. BRET signal was calculated as the ratio of fluorescence divided by luminescence, netBRET signal was calculated by subtracting the BRET signal of unstimulated wells from the respective samples.

[2] = target: T1, GPR1-eYFP (human)

T2 sequence (P32120 whole entry partner, one chain of several): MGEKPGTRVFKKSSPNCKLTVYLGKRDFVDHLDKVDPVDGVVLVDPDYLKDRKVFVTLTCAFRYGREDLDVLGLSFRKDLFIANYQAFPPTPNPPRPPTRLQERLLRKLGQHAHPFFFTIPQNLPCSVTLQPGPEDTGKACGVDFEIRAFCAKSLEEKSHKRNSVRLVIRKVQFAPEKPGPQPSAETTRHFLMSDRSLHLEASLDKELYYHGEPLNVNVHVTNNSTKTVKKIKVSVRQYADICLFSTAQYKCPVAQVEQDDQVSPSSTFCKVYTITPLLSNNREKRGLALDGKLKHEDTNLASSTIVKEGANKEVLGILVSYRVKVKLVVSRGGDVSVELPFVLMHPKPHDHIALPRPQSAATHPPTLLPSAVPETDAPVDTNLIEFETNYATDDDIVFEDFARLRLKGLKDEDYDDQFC

EC50 of arrestin3 recruitment to GPR1-eYFP (BRET with Rluc8-Arr3, COS-7 cells) [2] [nM]	Molecule	EC50 [1] [nM]	Emax [1] [%]
	QRAGEDPHSFYFPGQFAFS [Chem^139−157]	3.09	94 ± 7
	QRAGEDPHSFYFPGQFAF [Chem^139−156]	2.95	99 ± 9
> 1000	Chem^149-155 (chemerin-7) (peptide)		
	FPGQFAFS [Chem^150−157]	22.4	87 ± 8
	YFPGQFAF [Chem^149−156]	3.98	110 ± 16
	C[C@@H]1NC(=O)[C@H](Cc2ccccc2)NC(=O)[C@H](CCC(N)=O)NC(=O)[C@H](NC(=O)[C@@H]2CCCN2C(=O)[C@H](Cc2ccccc2)NC(=O)[C@@H](N)Cc2ccc(O)cc2)CCSSC[C@@H](C(=O)O)NC(=O)[C@H](Cc2ccccc2)NC1=O [[4-9]-c(chemerin-9)] (HELM PEPTIDE1{Y.F.P.[O=C([C@@H](CCS[*:3])N[*:1])[*:2]].Q.F.A.F.C}$PEPTIDE1,PEPTIDE1,4:R3-9:R3$$$V2.0)	3.3	
3.1	QRAGEDPHSFYFPGQFAFS [Chem^139-157]		
> 1000	PGQFAFS [Chem^151-157]		
> 1000	QFYSFFPAG [scr2C9]		
2.9	QRAGEDPHSFYFPGQFAF [Chem^139-156]		
22	FPGQFAFS [Chem^150-157]		
4	YFPGQFAF [Chem^149-156]		
